Values joined by “and” are separate entries in the source; they are usually repeats but may differ in a detail not shown here. Equal entries are not always repeated. Where a SMILES comes first, the peptide text is derived from it. The star is where a group is joined. Myristoyl = CCCCCCCCCCCCCC(=O)*
Test system: lung bronchiole and alveoli cell types
Experiment: Cell type deconvolution analysis of NanoString DSP data
Type: in vivo, golden Syrian hamsters
Parameters: cell type proportion: macrophages: unit not given here
Settings: for cell type proportion: B / cell type proportion: NK / cell type proportion: T / cell type proportion: Treg / cell type proportion: endothelial / cell type proportion: fibroblasts / cell type proportion: mDCs / cell type proportion: macrophages / cell type proportion: mast / cell type proportion: monocytes / cell type proportion: neutrophils / cell type proportion: pDCs / cell type proportion: plasma: individual ROIs of H023 and H017
Protocol: Cell type deconvolution analysis was performed using R package SpatialDecon[68]. The Q3 normalized count matrix from NanoString DSP data and the safeTME[68] immune cell profile matrix were used as the query and reference input, respectively, to reveal cell type abundance within each of the selected ROIs. Cell type proportion for each selected ROI was visualized using a stack bar plot, where ROIs were grouped by tissue region (bronchioles vs. alveoli) and experimental condition (control and NACE2i-treated samples). In addition, given the non-normal distribution of the data, the Wilcoxon test was performed to compare each cell type proportion in controls against NACE2i-treated ROIs. The distribution of each cell type and p-value for the comparisons were visualized in box plots.

For `CCCCCCCCCCCCCC(=O)N[C@H](C(=O)NCC(=O)N[C@H](C(=O)N[C@@H](CCCNC(=N)N)C(=O)N[C@@H](CC(=O)O)C(=O)N[C@@H](CCCNC(=N)N)C(=O)N[C@@H](CCCCN)C(=O)N[C@@H](CCCCN)C(=O)N[C@@H](CCCCN)C(=O)N[C@@H](CC(N)=O)C(=O)N[C@@H](CCCCN)C(=O)N[C@@H](C)C(=O)N[C@@H](CCCNC(=N)N)C(=O)N[C@@H](CO)C(=O)O)[C@@H](C)CC)[C@@H](C)O` [NACE2i] (Myristoyl-TGIRDRKKKNKARS-OH), the “cell type proportion: B” value (Alveoli_NACE2i) was 23.6847 and 32.4439 and 22.6247 and 29.4388 and 26.4374 and 25.048 and 27.5277 and 28.9903 and 27.2409 and 34.2892 and 28.9637 and 28.8675, the “cell type proportion: NK” value (Alveoli_NACE2i) was 17.1939 and 16.5847 and 20.9543 and 18.0108 and 22.2943 and 18.4617 and 20.087 and 18.6524 and 17.3616 and 14.6317 and 17.3619 and 17.6717 and the “cell type proportion: T” value (Alveoli_NACE2i) was 16.6413 and 6.4009 and 15.4997 and 7.4175 and 8.025 and 5.045 and 6.1551 and 0 (2×) and 10.2833 and 5.973 and 3.9643. For the same molecule, the “cell type proportion: Treg” value (Alveoli_NACE2i) was 0 (6×) and 1.553 and 8.1921 and 4.323 and 1 and 11.0807 and 5.06, the “cell type proportion: endothelial” value (Alveoli_NACE2i) was 28.1806 and 29.4553 and 29.583 and 29.8626 and 25.5168 and 33.6067 and 33.1024 and 36.1595 and 33.2493 and 33.1189 and 27.1461 and 36.2683 and the “cell type proportion: fibroblasts” value (Alveoli_NACE2i) was 1.176 and 0.714 and 0.4633 and 0.8459 and 0.7981 and 0.4825 and 0.7109 and 0.76 and 1.098 and 0.6031 and 0.7444 and 1.019. The “cell type proportion: mDCs” value (Alveoli_NACE2i) was 0 (10×) and 0.2521 and 0.6557, the “cell type proportion: macrophages” value (Alveoli_NACE2i) was 5.388 and 3.326 and 1.773 and 2.095 and 8.024 and 0.205 and 7.196 and 5.143 and 2.92 and 3.5372 and 2.755 and 4.269 and the “cell type proportion: mast” value (Alveoli_NACE2i) was 3.016 and 2.78 and 3.108 and 4.739 and 2.682 and 3.555 and 2.55 and 3.279 and 2.68 and 3.582 and 4.658 and 2.8819. The “cell type proportion: monocytes” value (Alveoli_NACE2i) was 0.03537 and 0 (11×), the “cell type proportion: neutrophils” value (Alveoli_NACE2i) was 1.753 and 2.9035 and 1.994 and 3.2852 and 1.817 and 0.9729 and 2.361 and 0.2488 and 2.135 and 0.8335 and 0.7054 and 0.8644 and the “cell type proportion: pDCs” value (Alveoli_NACE2i) was 0. The “cell type proportion: plasma” value (Alveoli_NACE2i) was 2.932 and 5.391 and 3.999 and 2.753 and 4.405 and 4.431 and 0.3105 and 2.193 and 2.376 and 2.431 and 2.621 and 3.0985, the “cell type proportion: B” value (Bronchiole_NACE2i) was 0 (4×) and 36.4151 and 8.716 and 15.9886 and 32.8168 and 11.1034 and 35.5652 and 45.4372 and 7.351 and the “cell type proportion: NK” value (Bronchiole_NACE2i) was 23.9964 and 22.2229 and 20.8895 and 32.9425 and 10.1656 and 15.473 and 6.835 and 10.348 and 25.7402 and 11.1678 and 15.6048 and 32.6588. The “cell type proportion: T” value (Bronchiole_NACE2i) was 18.2436 and 18.4266 and 38.1438 and 0 (3×) and 5.53 and 45.4382 and 35.2758 and 13.8104 and 20.1994 and 29.1879, the “cell type proportion: Treg” value (Bronchiole_NACE2i) was 0 (5×) and 21.836 and 33.8509 and 20.1505 and 4.85 and 5.947 and 12.5635 and 16.1845 and the “cell type proportion: endothelial” value (Bronchiole_NACE2i) was 16.4013 and 5.225 and 10.2999 and 2.966 and 17.2008 and 10.2265 and 6.188 and 5.584 and 8.968 and 11.6958 and 12.5764 and 14.8185. For the same molecule, the “cell type proportion: fibroblasts” value (Bronchiole_NACE2i) was 2.825 and 0.8593 and 2.185 and 1.129 and 1.957 and 1.105 and 1.635 and 0.3982 and 0.8306 and 1.6 and 2.113 and 2.3944, the “cell type proportion: mDCs” value (Bronchiole_NACE2i) was 0 (10×) and 0.9775 and 1.142 and the “cell type proportion: macrophages” value (Bronchiole_NACE2i) was 5.529 and 0 and 0.1628 and 4.651 and 2.104 and 14.1819 and 29.1261 and 22.5397 and 28.7793 and 1.462 and 3.082 and 5.048. The “cell type proportion: mast” value (Bronchiole_NACE2i) was 7.052 and 8.207 and 2.9723 and 2.068 and 4.233 and 1.198 and 2.171 and 3.272 and 0 and 1.897 and 1.1071 and 8.014, the “cell type proportion: monocytes” value (Bronchiole_NACE2i) was 0 (11×) and 0.2701 and the “cell type proportion: neutrophils” value (Bronchiole_NACE2i) was 9.945 and 11.5606 and 12.9563 and 15.2877 and 1.922 and 0 and 1.136 and 5.344 and 0.585 and 0.3256 and 4.512 and 3.83. For the same molecule, the “cell type proportion: pDCs” value (Bronchiole_NACE2i) was 0.5957 and 4.06 and 4.2347 and 0 (6×) and 1.875 and 1.074 and 1.693, the “cell type proportion: plasma” value (Bronchiole_NACE2i) was 15.4112 and 7.333 and 8.156 and 7.105 and 0.3226 and 1.788 and 1.644 and 1.037 and 2.72 and 1.151 and 2.026 and 6.866 and the “NK cells in bronchiolar regions” value (infected hamsters 2 dpi) was “increased”. The “macrophages in bronchiolar regions” value (infected hamsters 2 dpi) was “significantly decreased”.

— publication PMC10300102, “In vivo inhibition of nuclear ACE2 translocation protects against SARS-CoV-2 replication and lung damage through epigenetic imprinting” (Nature Communications, 2023)
